Molecular target: T1, mouse Tas2r144 (Mus musculus, UniProt Q7TQB8)
T1 construct: expressed in transfected cells; host or cells: HEK293T-Gα16gust44
Experiment: Calcium imaging assay (FLIPR), HEK293T-Gα16gust44 cells transfected with mouse Tas2r144
Assay type: cell-based
Conditions: for Δ F/F: Tas2r144
Protocol: This set of bile acids was chosen because of their commercial availability in high purities, their diversity within the class of bile acids and their previous detection and quantitation in human blood. Stock solutions were prepared in DMSO.
As basal growth medium for the HEK293T-Gα16gust44 cell line[17],[59] served Dulbecco’s modified eagle medium (DMEM) (Thermo Fisher Scientific, Darmstadt, Germany) supplemented with 10 % fetal bovine serum (Sigma-Aldrich, Steinheim, Germany), 2 mM L-glutamine (Sigma-Aldrich, Steinheim, Germany), 100 units/ml penicillin (Sigma Aldrich, Steinheim, Germany) and 100 µg/ml streptomycin (Sigma Aldrich, Steinheim, Germany). Growth conditions were 37 °C, 5 % CO2 and saturated air-humidity[60].
HEK293T-Gα16gust44 cells were seeded on poly-D-lysine (10 µg/ml) coated 96-well plates to reach a confluence of 40-60 % the next day. For transient transfection 150 ng of plasmid DNA containing the receptor of interest and 0.3 µl lipofectamine 2000 (Thermo Fisher Scientific, Darmstadt, Germany) per well were used and transfection took place according to the manual of lipofectamine 2000. […] The empty vector DNA (mock) was transfected as negative control[14],[41].
Cells were loaded using the calcium-sensitive fluorescent dye Fluo-4-AM (Abcam, Cambridge, Great Britain) in the presence of 2.5 mM probenecid (Sigma-Aldrich, Steinheim, Germany) the day after transfection[13],[41]. 1 h after loading, cells were washed with C1 buffer using a BioTek Cell Washer, incubated in the dark for half an hour and washed again. For automated agonist application and measurement of fluorescence changes, a FLIPR^TETRA device (Molecular Devices, San José, United States) was used. Viability of cells was tested by application of 100 nM Somatostatin 14 (Bachem, Bubendorf, Switzerland)[42].
Measured data were negative control corrected by subtracting the signal of the mock-transfected cells and exported to Microsoft Excel using the FLIPR software ScreenWorks 4.2. In Microsoft Excel software, standardization of maximum fluorescence intensities to the basal fluorescence and normalization to the buffer-only control was done to calculate the relative fluorescence changes (ΔF/F).
Initial screening experiments performed in duplicate wells were confirmed by at least one replication and representative traces were selected for display. All dose-response relationships were determined by three independent experiments (biological replicates) performed in duplicates (technical replicates). Threshold concentrations, defined as lowest substance concentrations leading to statistically significant elevated fluorescence changes in receptor-transfected cells compared with empty vector-transfected cells, were determined using SigmaPlot with Student’s t-test to evaluate statistical significance (p < 0.01).

T1 sequence (Q7TQB8 whole entry): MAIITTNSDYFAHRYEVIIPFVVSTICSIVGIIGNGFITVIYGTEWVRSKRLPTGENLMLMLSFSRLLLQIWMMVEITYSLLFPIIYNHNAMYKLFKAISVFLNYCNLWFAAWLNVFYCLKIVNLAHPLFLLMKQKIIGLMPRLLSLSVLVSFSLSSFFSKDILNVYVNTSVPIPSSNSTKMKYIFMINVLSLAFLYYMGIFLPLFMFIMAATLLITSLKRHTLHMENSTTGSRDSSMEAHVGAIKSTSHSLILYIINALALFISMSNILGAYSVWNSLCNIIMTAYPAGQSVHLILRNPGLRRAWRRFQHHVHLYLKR

SMILES: C[C@H](CCC(=O)NCC(=O)O)[C@H]1CC[C@H]2[C@@H]3[C@H](O)C[C@@H]4C[C@H](O)CC[C@]4(C)[C@H]3C[C@H](O)[C@]12C [Glycocholic Acid, glycocholic acid]
- Δ F/F (conc. 0,01 mM): 0.007151
- Δ F/F (conc. 0,1 mM): 0.04043
- Δ F/F (conc. 0,03 mM): 0.015
- Δ F/F (conc. 0,3 mM): 0.08047
- Δ F/F (conc. 0,003 mM): 0.00267
- RLU (Time 0 s): 0 RLU
- RLU (Time 2 s): -31.2125 RLU
- RLU (Time 4 s): -43.6447 RLU
- RLU (Time 6 s): -0.4257 RLU
- RLU (Time 8 s): -5.711 RLU
- RLU (Time 12 s): -13.8091 RLU
- RLU (Time 14 s): -0.4257 RLU
- RLU (Time 16 s): -0.5597 RLU
- RLU (Time 18 s): 10.0299 RLU
- RLU (Time 18.781 s): -3.913 RLU
- RLU (Time 20.781 s): -28.6004 RLU
- RLU (Time 22.781 s): -59.2077 RLU
- RLU (Time 24.781 s): -17.5148 RLU
- RLU (Time 26.781 s): 37.2224 RLU
- RLU (Time 28.781 s): 99.9904 RLU
- RLU (Time 30.781 s): 135.498 RLU
- RLU (Time 32.781 s): 202.624 RLU
- RLU (Time 34.781 s): 240.201 RLU
- RLU (Time 36.781 s): 276.718 RLU
- RLU (Time 38.781 s): 320.611 RLU
- RLU (Time 40.781 s): 324.075 RLU
- RLU (Time 42.781 s): 335.112 RLU
- RLU (Time 44.781 s): 371.949 RLU
- RLU (Time 46.781 s): 375.35 RLU
- RLU (Time 48.781 s): 395.668 RLU
- RLU (Time 50.781 s): 393.283 RLU
- RLU (Time 52.781 s): 432.603 RLU
- RLU (Time 54.781 s): 444.104 RLU
- RLU (Time 56.781 s): 419.562 RLU
- RLU (Time 58.781 s): 425.176 RLU
- RLU (Time 60.781 s): 431.497 RLU
- RLU (Time 62.781 s): 417.317 RLU
- RLU (Time 64.781 s): 465.061 RLU
- RLU (Time 66.781 s): 447.834 RLU
- RLU (Time 68.781 s): 427.827 RLU
- RLU (Time 70.781 s): 415.079 RLU
- RLU (Time 72.781 s): 432.914 RLU
- RLU (Time 74.781 s): 450.52 RLU
- RLU (Time 76.781 s): 421.617 RLU
- RLU (Time 78.781 s): 441.46 RLU
- RLU (Time 80.781 s): 426.566 RLU
- RLU (Time 82.781 s): 423.408 RLU
- RLU (Time 84.781 s): 393.748 RLU
- RLU (Time 86.781 s): 429.403 RLU
- RLU (Time 88.781 s): 405.471 RLU
- RLU (Time 90.781 s): 401.169 RLU
- RLU (Time 92.781 s): 422.993 RLU
- RLU (Time 94.781 s): 401.134 RLU
- RLU (Time 96.781 s): 381.14 RLU
- RLU (Time 98.781 s): 357.346 RLU
- RLU (Time 100.781 s): 380.46 RLU
- RLU (Time 102.781 s): 368.041 RLU
- RLU (Time 104.781 s): 369.437 RLU
- RLU (Time 106.781 s): 355.75 RLU
- RLU (Time 108.781 s): 354.221 RLU
- RLU (Time 110.781 s): 346.013 RLU
- RLU (Time 112.781 s): 352.628 RLU
- RLU (Time 114.781 s): 328.654 RLU
- RLU (Time 116.781 s): 301.02 RLU
- RLU (Time 118.781 s): 305.388 RLU
- RLU (Time 120.781 s): 301.126 RLU
- RLU (Time 122.781 s): 277.354 RLU
- RLU (Time 124.781 s): 278.403 RLU
- RLU (Time 126.781 s): 268.257 RLU
- RLU (Time 128.781 s): 264.093 RLU
- RLU (Time 130.781 s): 273.404 RLU
- RLU (Time 132.781 s): 241.449 RLU
- RLU (Time 134.781 s): 241.405 RLU
- RLU (Time 136.781 s): 246.641 RLU
- RLU (Time 137.562 s): 213.654 RLU
- RLU (Time 143.562 s): 221.818 RLU
- RLU (Time 149.562 s): 207.299 RLU
- RLU (Time 155.562 s): 180.281 RLU
- RLU (Time 161.562 s): 165.822 RLU
- RLU (Time 167.562 s): 177.105 RLU
- RLU (Time 173.562 s): 151.305 RLU
- RLU (Time 179.562 s): 140.777 RLU
- RLU (Time 185.562 s): 121.278 RLU
- RLU (Time 191.562 s): 122.229 RLU
- RLU (Time 197.562 s): 118.034 RLU
- RLU (Time 203.562 s): 110.818 RLU
- RLU (Time 209.562 s): 87.4457 RLU
- RLU (Time 215.562 s): 107.926 RLU
- RLU (Time 221.562 s): 45.9427 RLU
- RLU (Time 227.562 s): 30.7626 RLU
- RLU (Time 233.562 s): 60.9884 RLU
- RLU (Time 239.562 s): 58.9568 RLU
- RLU (Time 245.562 s): 54.3153 RLU
- RLU (Time 293.562 s): 51.7559 RLU
- RLU (Time 299.562 s): 74.5788 RLU
- RLU (Time 305.562 s): 55.2043 RLU
- RLU (Time 311.562 s): 49.25 RLU
- RLU (Time 317.562 s): 60.65 RLU
- RLU (Time 323.562 s): 55.6278 RLU
- RLU (Time 329.562 s): 55.0836 RLU
- RLU (Time 335.562 s): 69.3242 RLU
- RLU (Time 341.562 s): 66.607 RLU
- RLU (Time 347.562 s): 79.0246 RLU
- RLU (Time 353.562 s): 84.7807 RLU
- RLU (Time 359.562 s): 64.803 RLU
- Activation threshold concentration Tas2r144 (p < 0.01 vs empty vector): 100 µM
